Data from patent US5602278A (priority 1994, dated 1997).
Entries after “also recorded” stand apart in the source; their conditions may differ.

What was measured:
[1] = test system: CaNT murine adenocarcinoma; parameters: species or system CBA/Gy fTO mice; conditions: mouse
[2] = test system: EMT6 mouse mammary carcinoma cells
[3] = In vitro metabolism by rat liver microsomes under hypoxic or oxic conditions
hypoxic cells = conditions: Wilson et al., 1992; cited from earlier work

SMILES | potentiation of in vivo cytotoxicity by hydralazine [1] | activity compared to radiation, with concomitant hydralazine ([1]; in vivo) | effect of hypoxia and lowered pH on cytotoxicity [2] | effect of lowered extracellular pH on activity [2] | toxicity with reducing enzymes under hypoxia [2] | in vivo toxicity | dependence of rate of metabolism on amount of cyt P450 ([3]; hypoxia, NADPH 1 mM, microsomes 2.0-5.2 nmol cyt P450/ml) | metabolism ([3]; in air or in the presence of boiled microsomes) | metabolism with NADPH ([3]; in the presence of NADPH, microsomes, hypoxia) | major enzyme responsible for activation ([3]; microsomal bioreductive activation) | effect of CO on reductive metabolism ([3]; microsomes 2.9 nmol cyt P450/ml, NADPH 1 mM, hypoxia) | metabolism ([3]; microsomes and cofactors NADH or NADPH, under hypoxia) | conditions required for conversion to an activated alkylating species ([3]; rat liver microsomes, cofactors, inhibitors) | ability to diffuse into the extravascular compartment of tumors (hypoxic cells) | selectivity for hypoxic cells (hypoxic cells)
O=C(O)CCCc1ccc(N(CCCl)OCCCl)cc1 [CHL-HD, 4-[p-(N-2-chloroethoxy N-2-chloroethylamino)phenyl] butanoic acid] | potentiated by the administration of hydralazine 5 min prior or 30 post; also recorded: potentiated by hydralazine | enhanced activity as compared to radiation | both hypoxia and lowered pH in the presence of reducing enzymes potentiate to cytotoxicity | enhance when the extracellular pH is lowered below the physiological 7.4 | greater toxicity with reducing enzymes under hypoxia | minimal in vivo toxicity | there is a relationship between the amount of cyt P450 in the metabolic reaction mixture and the rate of metabolism | very little if any metabolism | metabolism occurs more readily at lower concentrations of cofactor | appears to be cyt P450 | CO inhibits the ability of microsomes to metabolize CHL-HD | is metabolized | reducing enzymes, co-factors and hypoxia were needed to activate CHL-HD to an alkylating species; also recorded: requires hypoxia and reducing enzymes and cofactors | – | –
C[N+](C)([O-])CCCNc1c2ccccc2nc2cccc([N+](=O)[O-])c12 [SN 24030] | – | – | – | – | – | – | – | – | – | – | – | – | – | improved ability to diffuse into the extravascular compartment of tumors | approximately 1500 fold
